# From PMC8556375, “Binding interaction of a ring-hydroxylating dioxygenase with fluoranthene in Pseudomonas aeruginosa DN1” (Scientific Reports, 2021)
# Target: T1, RHD alpha subunit (RhdA, RS30940) (Pseudomonas aeruginosa, UniProt Q9HTF4)
# T1 construct: gene gbcA; alpha subunit alone, 428 residues, His-tagged, pET-28a (NdeI/EcoRI), E. coli BL21 Star (DE3); no tag removal told
# T1 sequence (Q9HTF4 1-429): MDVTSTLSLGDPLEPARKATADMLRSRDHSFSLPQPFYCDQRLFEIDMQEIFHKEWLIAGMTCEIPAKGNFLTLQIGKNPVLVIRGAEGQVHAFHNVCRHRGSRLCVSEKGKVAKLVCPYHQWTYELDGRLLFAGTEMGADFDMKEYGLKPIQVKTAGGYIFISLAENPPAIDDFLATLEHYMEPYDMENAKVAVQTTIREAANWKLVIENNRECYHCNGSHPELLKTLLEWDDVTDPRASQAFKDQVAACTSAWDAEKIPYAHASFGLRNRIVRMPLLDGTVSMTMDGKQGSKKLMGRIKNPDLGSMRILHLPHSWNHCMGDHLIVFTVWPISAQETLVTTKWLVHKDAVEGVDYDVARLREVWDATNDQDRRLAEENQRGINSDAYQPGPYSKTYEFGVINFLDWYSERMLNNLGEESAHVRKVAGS
# Assay: intrinsic tryptophan fluorescence quenching (Stern-Volmer)
# Assay type: binding
# Settings: phosphate buffer pH 7.5; 5.0 x 10^-6 mol/L protein; 298, 304 and 310 K; excitation 278 nm
compound,measurement,value
c1ccc2c(c1)-c1cccc3cccc-2c13 [fluoranthene],Stern-Volmer parameters,intrinsic fluorescence of RHD alpha subunit could be quenched by fluoranthene
